Measurements published in ChEMBL document CHEMBL1145312, “Structure-activity relationships of triazolopyridine oxazole p38 inhibitors: identification of candidates for clinical development” (Bioorg Med Chem Lett, 2006).
Converted amounts (≈) assume the structure as drawn.

How the values were obtained:
[1] = target: T1, Mitogen-activated protein kinase 12 (Homo sapiens, UniProt P53778); assay: Inhibition of p38-gamma
T1 sequence (P53778 whole entry): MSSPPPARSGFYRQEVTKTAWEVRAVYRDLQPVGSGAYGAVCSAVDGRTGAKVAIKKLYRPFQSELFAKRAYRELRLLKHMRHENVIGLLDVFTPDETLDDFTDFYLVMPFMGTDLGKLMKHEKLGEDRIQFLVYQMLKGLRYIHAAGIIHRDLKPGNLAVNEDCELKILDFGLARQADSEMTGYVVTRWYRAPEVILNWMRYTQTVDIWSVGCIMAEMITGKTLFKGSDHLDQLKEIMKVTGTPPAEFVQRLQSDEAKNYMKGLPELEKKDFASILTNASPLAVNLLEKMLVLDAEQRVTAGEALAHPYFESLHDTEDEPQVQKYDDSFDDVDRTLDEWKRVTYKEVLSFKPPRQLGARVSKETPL

[2] = Hepatocyte microsomal extraction ratio in human; conditions: hepatic microsomes
[3] = target: T2, MAP kinase-activated protein kinase 5 (Homo sapiens, UniProt Q8IW41); assay: Inhibition of PRAK
T2 sequence (Q8IW41 whole entry): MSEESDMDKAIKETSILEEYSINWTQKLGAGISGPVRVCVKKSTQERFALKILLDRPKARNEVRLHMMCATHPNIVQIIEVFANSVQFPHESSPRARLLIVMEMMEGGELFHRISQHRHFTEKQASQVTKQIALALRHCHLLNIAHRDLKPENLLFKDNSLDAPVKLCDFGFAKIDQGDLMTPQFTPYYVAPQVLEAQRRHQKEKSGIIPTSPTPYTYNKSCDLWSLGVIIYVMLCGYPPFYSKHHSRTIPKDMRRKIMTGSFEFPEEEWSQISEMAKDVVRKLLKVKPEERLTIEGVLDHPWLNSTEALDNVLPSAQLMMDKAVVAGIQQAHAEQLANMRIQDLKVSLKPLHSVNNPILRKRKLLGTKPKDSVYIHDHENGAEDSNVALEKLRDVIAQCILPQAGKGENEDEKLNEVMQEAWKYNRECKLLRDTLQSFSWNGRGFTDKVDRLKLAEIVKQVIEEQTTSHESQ

[4] = target: RAC-alpha serine/threonine-protein kinase (Homo sapiens, UniProt P31749); assay: Inhibition of PKBalpha
[5] = Inhibition of phosphorylase kinase
[6] = target: c-Jun N-terminal kinase, JNK (Homo sapiens, UniProt P45983+P53779+P45984); assay: Inhibition of JNK; type: protein assay
[7] = target: Dual specificity tyrosine-phosphorylation-regulated kinase 1A (Homo sapiens, UniProt Q13627); assay: Inhibition of DYRK1a
[8] = Solubility in PBS buffer at ph 6.5; type: physicochemical
[9] = Half life in rat; type: ADME, organism-based; conditions: in vivo
hERG (KCNH2) = hERG (KCNH2) (Homo sapiens, UniProt Q12809); assay: Inhibition of hERG channel current in HEK293 cells at 3 uM; type: toxicity, cell-based; conditions: HEK293 cells that express hERG
[10] = Half life in monkey; type: ADME, organism-based, Macaca mulatta; conditions: rhesus monkey, in vivo
[11] = Plasma clearance in rat; type: ADME, organism-based
[12] = Plasma clearance in monkey; type: ADME, organism-based, Macaca mulatta; conditions: rhesus monkey
[13] = Bioavailability in monkey; type: ADME, organism-based, Macaca mulatta; conditions: rhesus monkey, in vivo
[14] = Bioavailability in rat; type: ADME, organism-based; conditions: in vivo
Rattus norvegicus = organism: Rattus norvegicus; assay: Inhibition of LPS-induced TNFalpha release in rat; type: functional
[15] = Volume of distribution in monkey; type: ADME, organism-based, Macaca mulatta; conditions: rhesus monkey, in vivo; read-out: Vdss
[16] = Volume of distribution in rat; type: ADME, organism-based; conditions: in vivo, read-out: Vdss
[17] = Permeability from basolateral to apical side of Caco-2 cell membrane; type: ADME, cell-based; conditions: human
[18] = Permeability from apical to basolateral side of Caco-2 cell membrane; type: ADME, cell-based; conditions: human
Casein kinase II = Casein kinase II (Homo sapiens, UniProt P19784+P67870+P68400); assay: Inhibition of CK2; type: protein-complex assay
Sequence of Casein kinase II (P67870 whole entry): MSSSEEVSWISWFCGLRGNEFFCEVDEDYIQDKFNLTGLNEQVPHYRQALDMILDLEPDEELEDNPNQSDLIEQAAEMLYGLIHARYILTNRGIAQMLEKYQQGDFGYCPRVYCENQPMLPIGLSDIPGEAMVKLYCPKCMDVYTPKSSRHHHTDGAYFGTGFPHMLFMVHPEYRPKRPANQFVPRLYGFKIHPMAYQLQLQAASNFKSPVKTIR
Sequence of Casein kinase II (P68400 whole entry): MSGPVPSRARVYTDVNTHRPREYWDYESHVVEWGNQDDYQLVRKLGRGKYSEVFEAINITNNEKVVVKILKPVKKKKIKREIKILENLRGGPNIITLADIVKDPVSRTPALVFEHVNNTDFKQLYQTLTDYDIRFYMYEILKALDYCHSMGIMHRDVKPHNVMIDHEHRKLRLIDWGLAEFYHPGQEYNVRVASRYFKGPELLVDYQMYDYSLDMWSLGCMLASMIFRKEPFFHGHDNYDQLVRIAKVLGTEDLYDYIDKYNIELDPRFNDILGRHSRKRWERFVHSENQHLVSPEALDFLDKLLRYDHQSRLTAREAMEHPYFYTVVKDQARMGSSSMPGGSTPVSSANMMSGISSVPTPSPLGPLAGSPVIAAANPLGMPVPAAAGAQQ
Sequence of Casein kinase II (P19784 whole entry): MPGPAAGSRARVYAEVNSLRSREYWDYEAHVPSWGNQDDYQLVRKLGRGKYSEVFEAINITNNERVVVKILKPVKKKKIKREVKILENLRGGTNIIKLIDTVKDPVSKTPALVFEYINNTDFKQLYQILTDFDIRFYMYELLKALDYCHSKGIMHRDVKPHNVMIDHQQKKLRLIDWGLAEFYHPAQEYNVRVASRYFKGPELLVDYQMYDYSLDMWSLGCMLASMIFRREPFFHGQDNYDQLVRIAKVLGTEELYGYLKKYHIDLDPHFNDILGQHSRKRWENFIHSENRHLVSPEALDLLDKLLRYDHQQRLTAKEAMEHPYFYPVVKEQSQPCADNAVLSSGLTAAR

Sequence of RAC-alpha serine/threonine-protein kinase (P31749 whole entry): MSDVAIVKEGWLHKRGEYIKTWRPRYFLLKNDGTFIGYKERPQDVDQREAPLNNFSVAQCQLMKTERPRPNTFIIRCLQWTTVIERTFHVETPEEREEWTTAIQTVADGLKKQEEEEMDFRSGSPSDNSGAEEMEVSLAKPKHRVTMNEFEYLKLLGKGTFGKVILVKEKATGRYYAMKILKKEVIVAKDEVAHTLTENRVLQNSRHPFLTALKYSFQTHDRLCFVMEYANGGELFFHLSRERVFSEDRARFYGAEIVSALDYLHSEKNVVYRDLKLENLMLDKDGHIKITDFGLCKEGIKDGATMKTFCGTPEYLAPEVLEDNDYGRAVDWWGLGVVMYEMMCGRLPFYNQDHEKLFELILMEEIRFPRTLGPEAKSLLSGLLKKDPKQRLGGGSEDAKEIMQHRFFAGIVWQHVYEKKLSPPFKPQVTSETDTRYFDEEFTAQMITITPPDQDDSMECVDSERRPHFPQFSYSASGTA
Sequence of hERG (KCNH2) (Q12809 whole entry): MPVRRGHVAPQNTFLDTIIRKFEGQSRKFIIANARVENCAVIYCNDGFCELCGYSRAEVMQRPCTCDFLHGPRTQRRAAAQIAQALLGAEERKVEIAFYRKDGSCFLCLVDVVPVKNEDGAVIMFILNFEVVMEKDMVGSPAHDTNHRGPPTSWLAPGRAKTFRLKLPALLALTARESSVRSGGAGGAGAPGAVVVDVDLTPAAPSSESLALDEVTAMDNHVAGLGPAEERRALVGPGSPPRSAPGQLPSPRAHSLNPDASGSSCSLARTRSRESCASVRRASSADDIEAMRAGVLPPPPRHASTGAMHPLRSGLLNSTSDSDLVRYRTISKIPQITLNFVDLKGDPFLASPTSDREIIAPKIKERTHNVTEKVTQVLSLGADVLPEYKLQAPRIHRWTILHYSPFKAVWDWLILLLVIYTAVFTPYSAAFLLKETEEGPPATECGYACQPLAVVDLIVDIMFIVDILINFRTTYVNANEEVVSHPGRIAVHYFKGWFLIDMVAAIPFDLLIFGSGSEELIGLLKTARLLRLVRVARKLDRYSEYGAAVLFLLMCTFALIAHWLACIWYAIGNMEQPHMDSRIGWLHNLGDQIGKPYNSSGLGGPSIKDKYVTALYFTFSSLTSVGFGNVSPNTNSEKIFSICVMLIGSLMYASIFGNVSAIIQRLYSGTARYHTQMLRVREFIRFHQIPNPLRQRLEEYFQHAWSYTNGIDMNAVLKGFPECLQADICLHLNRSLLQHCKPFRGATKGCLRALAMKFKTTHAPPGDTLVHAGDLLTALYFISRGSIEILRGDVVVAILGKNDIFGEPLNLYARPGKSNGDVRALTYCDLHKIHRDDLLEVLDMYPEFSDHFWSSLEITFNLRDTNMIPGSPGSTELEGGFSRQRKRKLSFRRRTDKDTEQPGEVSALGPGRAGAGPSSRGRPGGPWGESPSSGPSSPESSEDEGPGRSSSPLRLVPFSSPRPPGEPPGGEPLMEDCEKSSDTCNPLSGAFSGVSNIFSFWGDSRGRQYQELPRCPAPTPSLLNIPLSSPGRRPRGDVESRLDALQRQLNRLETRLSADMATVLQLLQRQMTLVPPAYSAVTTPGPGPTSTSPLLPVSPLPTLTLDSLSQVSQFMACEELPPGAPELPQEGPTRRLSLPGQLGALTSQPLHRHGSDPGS

SMILES | IC50 [1] [µM] | IC50 [3] [µM] | IC50 [4] [µM] | IC50 [5] [µM] | IC50 [6] [µM] | IC50 [7] [µM] | other results
CC(C)(C)c1nnc2ccc(-c3ocnc3-c3ccc(F)cc3F)cn12 | > 10 | > 10 | > 10 | > 10 | > 10 | > 10 | hepatic extraction ratio [2]: < 0.3
CC(C)(C)c1nnc2ccc(-c3ocnc3-c3cc(F)c(F)cc3F)cn12 | > 10 | > 10 | > 10 | > 10 | > 10 | > 10 | solubility [8]: 41 µg/mL (≈ 110 µM); half-life [9]: 2.6 h; inhibition at 3 µM (hERG (KCNH2)): 5.9%; half-life [10]: 5.2 h; clearance [11]: 3 mL/min/kg; clearance [12]: 3.4 mL/min/kg; bioavailability [13]: 66%; bioavailability [14]: 54%; ED50 (Rattus norvegicus): 0.1 mg/kg; Vd [15]: 1.2 L/kg; Vd [16]: 0.6 L/kg
CCNc1nnc2ccc(-c3ocnc3-c3ccc(F)cc3)cn12 | > 10 | > 10 | > 10 | > 10 | > 10 | > 10 | –
CC(C)c1nnc2ccc(-c3c[nH]nc3-c3cc(F)ccc3F)cn12 | > 10 | > 10 | > 10 | > 10 | > 10 | > 10 | Papp B→A [17]: 18 ×10⁻⁶ cm/s; Papp A→B [18]: 6 ×10⁻⁶ cm/s
CC(C)c1nnc2ccc(-c3ocnc3-c3ccccc3)cn12 | > 10 | > 10 | > 10 | > 10 | > 10 | > 10 | IC50 (Casein kinase II): > 10 µM
